Reference: patent US6608082B1, “Treatment of erectile dysfunction using isoquinoline compound melanocortin receptor ligands” (Lion Bioscience AG, priority 1998, dated 2003)
Read-outs that look alike come from different tables or passages of the source.

Experiments:
MCR-1 = biological target: T1, MCR-1 (Homo sapiens, UniProt Q01726); test: Melanocortin receptor binding assay, competition with 125I-HP 467, HEK 293 cells expressing hMCR-1; settings: read-out: MC-1 IC50
T1 construct: expressed in transfected cells; host or cells: HEK 293
T1 sequence (Q01726 whole entry): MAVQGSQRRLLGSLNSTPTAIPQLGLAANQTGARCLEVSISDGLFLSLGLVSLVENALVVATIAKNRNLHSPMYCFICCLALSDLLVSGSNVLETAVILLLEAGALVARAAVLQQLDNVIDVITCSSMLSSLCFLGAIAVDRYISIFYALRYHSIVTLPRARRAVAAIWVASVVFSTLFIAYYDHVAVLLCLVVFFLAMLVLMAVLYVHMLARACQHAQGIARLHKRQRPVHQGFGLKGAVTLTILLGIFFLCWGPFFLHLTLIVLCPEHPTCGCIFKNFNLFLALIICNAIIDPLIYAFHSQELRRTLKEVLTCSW
In short: (§1)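 Intact-cell competition binding, 2.5 hr at 37 °C, in PBS/10% calf serum/1 mM CaCl2; hMCR-4 cells at 4×10^3 per tube, hMCR-1 cells at 2×10^4 per tube. Filtration on BSA/CaCl2-soaked GF/B, cold 50 mM Tris pH 7.4 washes, scintillation count.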

MCR-4 = biological target: T2, MCR-4 (Homo sapiens, UniProt P32245); test: Melanocortin receptor binding assay, competition with 125I-HP 467, HEK 293 cells expressing hMCR-4; settings: for IC50: read-out: MC-4 IC50
T2 construct: expressed in transfected cells; host or cells: HEK 293
T2 sequence (P32245 whole entry): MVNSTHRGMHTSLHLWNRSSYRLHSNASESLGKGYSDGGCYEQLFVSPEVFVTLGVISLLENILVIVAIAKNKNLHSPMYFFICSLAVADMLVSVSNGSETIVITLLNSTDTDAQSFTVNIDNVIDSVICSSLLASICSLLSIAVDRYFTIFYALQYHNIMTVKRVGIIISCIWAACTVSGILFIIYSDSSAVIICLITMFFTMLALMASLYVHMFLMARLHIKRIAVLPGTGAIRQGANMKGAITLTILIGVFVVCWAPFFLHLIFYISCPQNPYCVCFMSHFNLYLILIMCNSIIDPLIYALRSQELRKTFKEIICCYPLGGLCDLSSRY
In short: as §1

[1] = TRG 2406 and TRG 2407 libraries, inhibition of binding of 125I-HP 467
[2] = TRG 2408 and TRG 2409 libraries, inhibition of 125I-HP 467 binding

Structure (SMILES) | IC50 (MCR-1; [1]) | IC50 (MCR-4; [1]) | MC-4 IC50 (MCR-4; [1]) | IC50 (MCR-1; [2]) | IC50 (MCR-4; [2])
CNC(CN)CCCCN1Cc2ccccc2C(CN(C)C2CCCCC2)C1c1ccc(Cl)cc1Cl (stereo not drawn) [TRG 2407-30] | 3.15 µM | 2.1 µM | – | – | –
CNC(CN)CCCCN1Cc2ccccc2C(CN2CCCCC2)C1c1ccc(Cl)cc1Cl (stereo not drawn) [TRG 2407-32] | 3.29 µM | 2.14 µM | – | – | –
CNC(CN)CCCCN1Cc2ccccc2C(CN2CCOCC2)C1c1ccc(Cl)cc1Cl (stereo not drawn) [TRG 2407-33] | 6.9 µM | 6.02 µM | – | – | –
CCN(CC)CC1c2ccccc2CN(CCCCC(CN)NC)C1c1ccc(Cl)cc1Cl (stereo not drawn) [TRG 2407-35] | 6.52 µM | 3.41 µM | – | – | –
C=CCNCC1c2ccccc2CN(CCCCC(CN)NC)C1c1ccc(Cl)cc1Cl (stereo not drawn) [TRG 2407-36] | 0.43 µM | 0.46 µM | – | – | –
CNC(CN)CCCCN1Cc2ccccc2C(CNC(C)C)C1c1ccc(Cl)cc1Cl (stereo not drawn) [TRG 2407-37] | 0.91 µM | 0.54 µM | – | – | –
CNC(CN)CCCCN1Cc2ccccc2C(CO)C1c1ccc(Cl)cc1Cl (stereo not drawn) [TRG 2407-40] | 4.74 µM | 4.94 µM | – | – | –
CCNc1ccc(C2C(CNc3ccccc3)c3ccccc3CN2CCCCC(CN)NC)cc1 (stereo not drawn) [TRG 2407-41] | 5.87 µM | 17 µM | – | – | –
CCNc1ccc(C2C(CN(C)c3ccccc3)c3ccccc3CN2CCCCC(CN)NC)cc1 (stereo not drawn) [TRG 2407-42] | 4.23 µM | 7.9 µM | – | – | –
CCNc1ccc(C2C(CNc3ccccc3Cl)c3ccccc3CN2CCCCC(CN)NC)cc1 (stereo not drawn) [TRG 2407-43] | 7.07 µM | 11.2 µM | – | – | –
CCNc1ccc(C2C(CNc3ccccc3OC)c3ccccc3CN2CCCCC(CN)NC)cc1 (stereo not drawn) [TRG 2407-44] | 1.15 µM | 10.4 µM | – | – | –
CCNc1ccc(C2C(CNc3cccc(Cl)c3)c3ccccc3CN2CCCCC(CN)NC)cc1 (stereo not drawn) [TRG 2407-45] | 7.91 µM | 11 µM | – | – | –
CCNc1ccc(C2C(CNc3cccc(OCC)c3)c3ccccc3CN2CCCCC(CN)NC)cc1 (stereo not drawn) [TRG 2407-46] | 1.63 µM | 16.4 µM | – | – | –
CCNc1ccc(C2C(CNc3ccc(Cl)cc3)c3ccccc3CN2CCCCC(CN)NC)cc1 (stereo not drawn) [TRG 2407-48] | 4.48 µM | 10.8 µM | – | – | –
CCNc1ccc(C2C(CNc3ccc(OC)cc3)c3ccccc3CN2CCCCC(CN)NC)cc1 (stereo not drawn) [TRG 2407-49] | 2.36 µM | – | no fit | – | –
CCNc1ccc(C2C(CNCc3ccccc3)c3ccccc3CN2CCCCC(CN)NC)cc1 (stereo not drawn) [TRG 2407-50] | 0.35 µM | 9.1 µM | – | – | –
CCNc1ccc(C2C(CN(C)Cc3ccccc3)c3ccccc3CN2CCCCC(CN)NC)cc1 (stereo not drawn) [TRG 2407-51] | 2.16 µM | 13.5 µM | – | – | –
CCNc1ccc(C2C(CNCc3ccccc3Cl)c3ccccc3CN2CCCCC(CN)NC)cc1 (stereo not drawn) [TRG 2407-52] | 0.44 µM | 1.56 µM | – | – | –
CCNc1ccc(C2C(CNCc3ccccc3C(F)(F)F)c3ccccc3CN2CCCCC(CN)NC)cc1 (stereo not drawn) [TRG 2407-53] | 1.27 µM | 0.79 µM | – | – | –
CCNc1ccc(C2C(CNCc3ccccc3OCC)c3ccccc3CN2CCCCC(CN)NC)cc1 (stereo not drawn) [TRG 2407-55] | 0.19 µM | 14.9 µM | – | – | –
CCNc1ccc(C2C(CNC3CCCCC3)c3ccccc3CN2CCCCC(N)CN)cc1 (stereo not drawn) [TRG 2408-5] | – | – | – | 1.66 µM | 31.8 µM
CCNc1ccc(C2C(CNC3CCCCC3)c3ccccc3CN2CCCC[C@@H](CN)NCCc2ccccc2)cc1 (stereo partly drawn) [TRG 2408-6] | – | – | – | 0.61 µM | 7.16 µM
CCNc1ccc(C2C(CNC3CCCCC3)c3ccccc3CN2CCCCC(CN)NCCNC)cc1 (stereo not drawn) [TRG 2408-8] | – | – | – | 2.31 µM | 43.3 µM
NCC(N)CCCCN1Cc2ccccc2C(CNC2CCCCC2)C1c1ccc(Cl)cc1Cl (stereo not drawn) [TRG 2408-13] | – | – | – | 1.72 µM | 1.58 µM
NCC(CCCCN1Cc2ccccc2C(CNC2CCCCC2)C1c1ccc(Cl)cc1Cl)NCCc1ccccc1 (stereo not drawn) [TRG 2408-14] | – | – | – | 2.11 µM | 5.52 µM
NCCNC(CN)CCCCN1Cc2ccccc2C(CNC2CCCCC2)C1c1ccc(Cl)cc1Cl (stereo not drawn) [TRG 2408-15] | – | – | – | 0.76 µM | 6.3 µM
CNCCNC(CN)CCCCN1Cc2ccccc2C(CNC2CCCCC2)C1c1ccc(Cl)cc1Cl (stereo not drawn) [TRG 2408-16] | – | – | – | 1.79 µM | 6.11 µM

Structure (SMILES) | IC50 (MCR-1; [1]) | IC50 (MCR-4; [1]) | MC-4 IC50 (MCR-4; [1]) | IC50 (MCR-1; [2]) | IC50 (MCR-4; [2])
NCC(N)CCCCN1Cc2ccccc2C(CNC2CCCCC2)C1c1ccc(-c2ccccc2)cc1 (stereo not drawn) [TRG 2408-21] | – | – | – | 1.73 µM | 17.4 µM
NCC(CCCCN1Cc2ccccc2C(CNC2CCCCC2)C1c1ccc(-c2ccccc2)cc1)NCCc1ccccc1 (stereo not drawn) [TRG 2408-22] | – | – | – | 2.77 µM | 11.4 µM
NCCNC(CN)CCCCN1Cc2ccccc2C(CNC2CCCCC2)C1c1ccc(-c2ccccc2)cc1 (stereo not drawn) [TRG 2408-23] | – | – | – | 0.82 µM | 20.5 µM
CCNc1ccc(C2C(CNC3CCCCC3)c3ccccc3CN2CCCCC(CN)NCCc2ccccc2)cc1 (stereo not drawn) [TRG 2408-32] | – | – | – | 1.15 µM | 9.44 µM
CCNc1ccc(C2C(CNC3CCCCC3)c3ccccc3CN2CCCCC(CN)NCCN)cc1 (stereo not drawn) [TRG 2408-33] | – | – | – | 1.06 µM | 38.7 µM
CCNc1ccc(C2C(CNC3CCCCC3)c3ccccc3CN2CCCCC(CN)NCCNC)cc1 (stereo not drawn) [TRG 2408-34] | – | – | – | 2.14 µM | 33.6 µM
CN[C@@H](CN)CCCCN1Cc2ccccc2C(CNC2CCCCC2)C1c1ccc(Cl)cc1Cl (stereo partly drawn) [TRG 2408-40] | – | – | – | 2.43 µM | 8.28 µM
NC[C@H](N)CCCCN1Cc2ccccc2C(CNC2CCCCC2)C1c1ccc(Cl)cc1Cl (stereo partly drawn) [TRG 2408-41] | – | – | – | 1.03 µM | 3.88 µM
NC[C@@H](CCCCN1Cc2ccccc2C(CNC2CCCCC2)C1c1ccc(Cl)cc1Cl)NCCc1ccccc1 (stereo partly drawn) [TRG 2408-42] | – | – | – | 1.93 µM | 4.24 µM
NCCNC(CN)CCCCN1Cc2ccccc2C(CNC2CCCCC2)C1c1ccc(Cl)cc1Cl (stereo not drawn) [TRG 2408-43] | – | – | – | 1.63 µM | 7.49 µM
CNCCNC(CN)CCCCN1Cc2ccccc2C(CNC2CCCCC2)C1c1ccc(Cl)cc1Cl (stereo not drawn) [TRG 2408-44] | – | – | – | 1.27 µM | 5.06 µM
CNC(CN)CCCCN1Cc2ccccc2C(CNC2CCCCC2)C1c1ccc(-c2ccccc2)cc1 (stereo not drawn) [TRG 2408-50] | – | – | – | 1.55 µM | 13.3 µM
NC[C@H](N)CCCCN1Cc2ccccc2C(CNC2CCCCC2)C1c1ccc(-c2ccccc2)cc1 (stereo partly drawn) [TRG 2408-51] | – | – | – | 3.19 µM | 29.3 µM
NCC(CCCCN1Cc2ccccc2C(CNC2CCCCC2)C1c1ccc(-c2ccccc2)cc1)NCCc1ccccc1 (stereo not drawn) [TRG 2408-52] | – | – | – | 3.69 µM | 12.3 µM
NCCNC(CN)CCCCN1Cc2ccccc2C(CNC2CCCCC2)C1c1ccc(-c2ccccc2)cc1 (stereo not drawn) [TRG 2408-53] | – | – | – | 1 µM | 14.8 µM
CNCCN[C@@H](CN)CCCCN1Cc2ccccc2C(CNC2CCCCC2)C1c1ccc(-c2ccccc2)cc1 (stereo partly drawn) [TRG 2408-54] | – | – | – | 0.61 µM | 26.8 µM
CCNc1ccc(C2C(CNC3CCCCC3)c3ccccc3CN2CCCC(CN)NC)cc1 (stereo not drawn) [TRG 2408-60] | – | – | – | 0.69 µM | 20.7 µM
CCNc1ccc(C2C(CNC3CCCCC3)c3ccccc3CN2CCCC(N)CN)cc1 (stereo not drawn) [TRG 2408-61] | – | – | – | 0.69 µM | 35.2 µM
CCNc1ccc(C2C(CNC3CCCCC3)c3ccccc3CN2CCCC(CN)NCCN)cc1 (stereo not drawn) [TRG 2408-63] | – | – | – | 0.69 µM | 18.7 µM
CCNc1ccc(C2C(CNC3CCCCC3)c3ccccc3CN2CCCC(CN)NCCNC)cc1 (stereo not drawn) [TRG 2408-64] | – | – | – | 2.67 µM | 25 µM
CNC(CN)CCCN1Cc2ccccc2C(CNC2CCCCC2)C1c1ccc(Cl)cc1Cl (stereo not drawn) [TRG 2408-70] | – | – | – | 1.46 µM | 2.5 µM
NCC(N)CCCN1Cc2ccccc2C(CNC2CCCCC2)C1c1ccc(Cl)cc1Cl (stereo not drawn) [TRG 2408-71] | – | – | – | 1.19 µM | 3.03 µM
NC[C@H](CCCN1Cc2ccccc2C(CNC2CCCCC2)C1c1ccc(Cl)cc1Cl)NCCc1ccccc1 (stereo partly drawn) [TRG 2408-72] | – | – | – | 1.94 µM | 5.87 µM
NCCNC(CN)CCCN1Cc2ccccc2C(CNC2CCCCC2)C1c1ccc(Cl)cc1Cl (stereo not drawn) [TRG 2408-73] | – | – | – | 1.08 µM | 4.05 µM
CNCCNC(CN)CCCN1Cc2ccccc2C(CNC2CCCCC2)C1c1ccc(Cl)cc1Cl (stereo not drawn) [TRG 2408-74] | – | – | – | 1.56 µM | 4.28 µM
CNC(CN)CCCN1Cc2ccccc2C(CNC2CCCCC2)C1c1ccc(-c2ccccc2)cc1 (stereo not drawn) [TRG 2408-80] | – | – | – | 2.18 µM | 12.2 µM
NCC(N)CCCN1Cc2ccccc2C(CNC2CCCCC2)C1c1ccc(-c2ccccc2)cc1 (stereo not drawn) [TRG 2408-81] | – | – | – | 4.41 µM | 18 µM
